The subject of data set [1] is caspase-3 cognate target poly(ADP-ribose) polymerase (PARP). Nature of the data set: Cellular activity: PARP cleavage immunoblot in cisplatin-treated RIF-1 cells. The format is cell-based, murine. The settings on record: 15 min pre-incubation, cisplatin 100 μM 48 h. From the text: The Δ-PARP immunoblot band corresponds to the endogenous 89 kDa large fragment of PARP resulting from caspase 3 cleavage. α-tubulin was used as a loading control.

In a further data set the test system is PEO4 xenograft. Nature of the data set: In vivo [^18F]11 biodistribution and PET imaging, PEO4 xenograft. Particulars: for 60 min biodistribution, Bone / 60 min biodistribution, Kidney / 60 min biodistribution, L. Intestine / 60 min biodistribution, Liver / 60 min biodistribution, Lung / 60 min biodistribution, Muscle / 60 min biodistribution, S. Intestine / 60 min biodistribution, Spleen / 60 min biodistribution, Tumour: PEO4. Details: species or system mice. The text has this:
In vivo tumour models were established by subcutaneous injection of PEO1/4 (10×10^6 cells, with v/v matrigel, BD Biosciences, Oxford, UK), RIF-1 (5×10^5 cells) and LNM35 (1×10^6 cells) on the back of 6-8 weeks old female nu/nu-BALB/c or male C3H/hej mice (Harlan, Bicester, Oxfordshire, UK). Tumour growth was monitored every two days using electronic callipers, and tumour volume estimated using (π/6)×L×W×D (L=length, W=width and D=depth). All animal work was done by licensed investigators in accordance with the United Kingdom's “Guidance on the Operation of Animals (Scientific Procedures) Act 1986” (HMSO, London, United Kingdom, 1990) and in full compliance with government regulations and guidelines on the welfare of animals in experimental neoplasia.
For biodistribution studies, tumour-bearing mice were treated with 10 mg/kg cisplatin or vehicle for 24 h, anesthetized with isofluorane/O2/N2O and injected i.v. in the lateral tail vein with ˜100 μCi [^18F]11 for the indicated time. The different tissues were removed, weighted and placed in counting tubes for immediate Fluorine-18 radioactivity counting.
Tumour-bearing mice treated with Cisplatin (10 mg/kg for 24 h) or vehicle were scanned on a dedicated small animal PET scanner (quad-HIDAC; Oxford Positron Systems, Weston-on-the-Green, United Kingdom). Anesthetized animals were placed within a thermostatically controlled bed and positioned prone within the scanner. The bed was calibrated to provide a mouse rectal temperature of ˜37° C. A bolus injection of [^18F]11 (˜100 μCi) was given intravenously (i.v.) via the tail vein cannula and scanning commenced. Dynamic emission scans were acquired in list-mode format over 60 minutes. The acquired data were then sorted into 0.5-mm sinogram bins and 19 time frames (0.5×0.5×0.5 mm voxels; 4×15, 4×60, and 11×300 seconds) for image reconstruction, which was done by filtered back projection using a two-dimensional Hamming filter (cutoff 0.6). The image data-sets obtained were transferred to a SUN workstation (Ultra 10; SUN Microsystems, Santa Clara, Calif.) and visualized using the Analyze software (version 6.0; Biomedical Imaging Resource, Mayo Clinic, Rochester, Minn.). Cumulative images of the dynamic data composed of 0 to 1 minute after injection and 30 to 60 minutes after injection were used for visualization of radiotracer uptake and to define the regions of interest (ROI). The count densities were averaged for each ROI at each of the 19 time points to obtain a time versus radioactivity curve (TAC) for the ROIs. Tumour TAC was normalized to that of heart at each of the time points to obtain the normalized uptake value (NUV). The [^18F]9 data from […] were used as internal input function for normalizing tumour data. […] FRT is a useful variable in that it indicates the proportion of radiotracer delivered to the tumour that is retained. It therefore normalizes tumor [^18F]9 uptake to delivery.

As to `O=C1C(=O)N(Cc2cn(CCF)nn2)c2ccc(S(=O)(=O)N3CCC[C@H]3COc3ccc(F)cc3F)cc21` [Compound 11, (S)-1-((1-(2-Fluoroethyl)-1H-[1,2,3]-triazol-4-yl)methyl)-5-(2(2,4-difluorophenoxymethyl)-pyrrolidine-1-sulfonyl)isatin], in data set [1], the “effect on induction of cleaved PARP by cisplatin induced apoptosis” value is on record as “disrupted the induction of caspase-3 cognate target PARP by cisplatin induced apoptosis”.
For `O=C1C(=O)N(Cc2cn(CC[18F])nn2)c2ccc(S(=O)(=O)N3CCC[C@H]3COc3ccc(F)cc3F)cc21` [[^18F]11, (S)-1-((1-(2-Fluoroethyl)-1H-[1,2,3]-triazol-4-yl)methyl)-5-(2(2,4-difluorophenoxymethyl)-pyrrolidine-1-sulfonyl)isatin], in the data set with PEO4 xenograft (CDDP treated), the “60 min biodistribution, Bone” value stood at 1.44 ± 0.66; the “60 min biodistribution, Kidney” value is recorded as 7.96 ± 3.34; the “60 min biodistribution, L. Intestine” value is 2.89 ± 0.93; the “60 min biodistribution, Liver” value turned out to be 8.22 ± 2.89. For the same compound, in the data set on PEO4 xenograft (CDDP treated), the “60 min biodistribution, Lung” value is reported as 4.73 ± 1.78; the “60 min biodistribution, Muscle” value came to 1.13 ± 0.22; the “60 min biodistribution, S. Intestine” value came to 10.43 ± 14.36; the “60 min biodistribution, Spleen” value came to 1.81 ± 0.80. For the same compound, the “60 min biodistribution, Tumour” value in the data set with PEO4 xenograft (CDDP treated) turned out to be 2.15 ± 0.79. In the data set with PEO4 xenograft (Control), the “60 min biodistribution, Bone” value is reported as 1.12 ± 0.47; the “60 min biodistribution, Kidney” value is 8.04 ± 4.24; the “60 min biodistribution, L. Intestine” value is reported as 2.40 ± 1.88; the “60 min biodistribution, Liver” value was found to be 6.71 ± 1.56. Besides, in the data set with PEO4 xenograft (Control), the “60 min biodistribution, Lung” value came out at 3.31 ± 0.83; the “60 min biodistribution, Muscle” value turned out to be 0.88 ± 0.36; the “60 min biodistribution, S. Intestine” value was 10.37 ± 10.58; the “60 min biodistribution, Spleen” value came to 1.26 ± 0.45. Besides, the “60 min biodistribution, Tumour” value in the data set on PEO4 xenograft (Control) was 1.66 ± 0.41. For the same compound, in the data set on PEO4 xenograft (CDDP-resistant PEO4 tumours, 60 min), the “uptake in the tumour of CDDP treated vs control mice” value was “not showing differences in uptake between control and treated”. Further, the “PET image: uptake in the tumour” value with PEO4 xenograft (CDDP-treated mouse, PEO4 xenograft, 30-60 min) is listed as “significant uptake”.
